Assay results published in patent US20170112784A1, “Method and Medicament for Pain Management” (priority 2007, published 2017).

Key:
horses [1] = experiment: Trial of methoxyflurane administered to horses at the end of anaesthesia to modify recovery; type: in vivo, horse; design: 1st Movt / Stern. / Stnd / Atax / Walk out: unit not given here
Description: Trial of methoxyflurane administered to horses at the end of anaesthesia, attempting to modify recovery:
[…] Horses recovering from isoflurane typically attempt to stand in 10 to 15 minutes, usually fall down and try to get back up 2 or 3 times (sometimes violent, resulting in injuries from skin abrasions to fractured limbs) and are then standing 15 to 20 minutes after anaesthetic administration ceased. […] Halothane recoveries are less violent and result in less likelihood of injury.
Initially trials were also performed in anattempt to determine the dose and duration of MOF administration that would result in improved quality of recovery.
The last 8 horses were administered with ever lower doses of MOF for less time with better results (see table below). […] The lowest dose produced a good result.

horses [2] = conditions: typical; cited from earlier work
[3] = horse 338 kgs, 30 Mins. HAL anaesthesia, Methoxy volume not given
[4] = horse 492 kgs, 90 Mins. HAL anaesthesia, Methoxy volume not given
[5] = horse 332 kgs, 135 Mins. ISO anaesthesia, Methoxy total 200 ml
[6] = horse 462 kgs, 135 Mins. ISO anaesthesia, Methoxy total 350 ml
[7] = horse 470 kgs, 85 Mins. ISO anaesthesia, Methoxy total 210 ml
[8] = horse 492 kgs, 75 Mins. ISO anaesthesia, Methoxy total 540 ml
[9] = horse 580 kgs, 16O Mins. ISO anaesthesia, Methoxy total 300 ml
[10] = horse 472 kgs, 130 Mins. ISO anaesthesia, Methoxy volume not given

Which “1st Movt” value (horses [1]; [3]) does the source give for `FC(F)(F)C(Cl)Br` (centres unmarked) [HAL, halothane] here?
The value was 27.

And the Atax (horses [1]; [3])?
The Atax was “Fell”.

And the Comments (horses [1]; [3])?
Its Comments is “Stood/fell x 3”.

And the Stern. (horses [1]; [3])?
Its Stern. is 30.

And the Stnd (horses [1]; [3])?
Its Stnd is 31.

And the Walk out (horses [1]; [3])?
Its Walk out is 55.

And the “1st Movt” value (horses [1]; [4])?
Its value is 30.

What about the Atax (horses [1]; [4]) of the same compound?
Its Atax is 75.

And the Comments (horses [1]; [4])?
The Comments was “Poor - flip over”.

What about the Stern. (horses [1]; [4]) of the same compound?
The Stern. was 50(2).

And the Stnd (horses [1]; [4])?
The Stnd was 65.

What about the Walk out (horses [1]; [4]) of the same compound?
The Walk out was 85.

And the “recovery duration in comparison with isoflurane” value (horses [2])?
The value was “twice as long as isoflurane”.

For `COC(F)(F)C(Cl)Cl` [Methoxy, methoxyflurane], which “1st Movt” value (horses [1]; [5]) is on record?
The value was 17.

And the Atax (horses [1]; [5])?
Its Atax is 30.

And the Comments (horses [1]; [5])?
The Comments was “Good”.

What about the Stern. (horses [1]; [5]) of the same compound?
Its Stern. is 25.

And the Stnd (horses [1]; [5])?
The Stnd was 26.

What about the Walk out (horses [1]; [5]) of the same compound?
Its Walk out is 41.

And the “1st Movt” value (horses [1]; [6])?
The value was 48.

What about the Atax (horses [1]; [6]) of the same compound?
Its Atax is 59.

And the Comments (horses [1]; [6])?
The Comments was “Still 45 mm then”.

And the Stnd (horses [1]; [6])?
The Stnd was 49.

What about the Walk out (horses [1]; [6]) of the same compound?
Its Walk out is 75.

And the “1st Movt” value (horses [1]; [7])?
The value was 5.

And the Atax (horses [1]; [7])?
The Atax was 35.

And the Comments (horses [1]; [7])?
Its Comments is 10x wobble then.

And the Stern. (horses [1]; [7])?
Its Stern. is 14.

And the Stnd (horses [1]; [7])?
The Stnd was 29.

What about the Walk out (horses [1]; [7]) of the same compound?
The Walk out was 55.

What about the “1st Movt” value (horses [1]; [8]) of the same compound?
Its value is 50.

And the Atax (horses [1]; [8])?
The Atax was 85.

And the Comments (horses [1]; [8])?
The Comments was “Stood 69- fell”.

What about the Stern. (horses [1]; [8]) of the same compound?
The Stern. was 60.

What about the Stnd (horses [1]; [8]) of the same compound?
The Stnd was 75.

And the Walk out (horses [1]; [8])?
The Walk out was 100.

What about the “1st Movt” value (horses [1]; [9]) of the same compound?
The value was 37.

What about the Atax (horses [1]; [9]) of the same compound?
Its Atax is 85.

What about the Stern. (horses [1]; [9]) of the same compound?
The Stern. was 60.

And the Stnd (horses [1]; [9])?
Its Stnd is 61.

And the Walk out (horses [1]; [9])?
The Walk out was 90.

And the quality of recovery (horses [1]; initial trials (higher dose, longer administration), horses after isoflurane anaesthesia)?
The quality of recovery was “long recoveries with marked ataxia”.

And the quality of recovery (horses [1]; last 8 horses, ever lower doses for less time)?
The quality of recovery was “less ataxia and a better quality recovery”.

What about the quality of recovery (horses [1]; lowest dose, last horse) of the same compound?
The quality of recovery was “good result”.

Which “1st Movt” value (horses [1]; [10]) does the source give for `FC(F)OC(Cl)C(F)(F)F` (centres unmarked) [ISO, isoflurane] here?
Its value is 23.

What about the Atax (horses [1]; [10]) of the same compound?
Its Atax is 78.

And the Comments (horses [1]; [10])?
The Comments was “Try stand at 23”.

What about the Stern. (horses [1]; [10]) of the same compound?
The Stern. was 32.

And the Stnd (horses [1]; [10])?
The Stnd was 63.

What about the Walk out (horses [1]; [10]) of the same compound?
Its Walk out is 100.
